Test results from patent US5248690A, “Method for treatment of neurodegenerative diseases” (R. J. Reynolds Tobacco Company, priority 1992, dated 1993).

Molecular target: high affinity nicotinic receptors
Assay: Inhibition of L-[3H]nicotine binding to mouse brain membrane preparations
Parameters: species or system Mice (DBA strain)
Conditions: 10 nM L-[3H]nicotine, 2 hr at 4° C., mouse brain membranes, Ki calculated from IC50 by method of Cheng et al.
Experimental: Mice (DBA strain) were maintained on a 12 hour light/dark cycle and were allowed free access to water and food supplied by Wayne Lab Blox, Madison, Wis. Animals used in the present studies were 60 to 90 days of age and weighed 20 to 25 g. Brain membrane preparations were obtained from pooled brain tissue of both males and females.
Mice were killed by cervical dislocation. Brains were removed and placed on an ice-cold platform. […] Protein was determined by the method of Lowry, et al., J. Biol. Chem., Vol. 193, pp. 265-275 (1951), using bovine serum albumin as the standard.
The binding of L-[^3 H]nicotine was measured using a modification of the method of Romano, et al., Science, Vol. 210, pp. 647-650 (1980) as described previously by Marks, et al., Mol. pharmacol., Vol. 30, pp. 427-436 (1986). The binding of L-[^3 H]nicotine was measured using a 2 hr. incubation at 4° C. […] Nonspecific binding was determined by inclusion of 10 μM nonradioactive nicotine in the incubations. The inhibition of L-[^3 H]nicotine binding by test compounds was determined by including one of eight different concentrations of the test compound in the incubation. […] Inhibition constants (Ki values) were calculated from the IC50 values using the method of Cheng, et al., Biochem. Pharmacol., Vol. 22, pp. 3099-3108 (1973). […]

In the case of `CN1CCCC1c1ccccc1` (racemic) [1-methyl-2-phenylpyrrolidine], the Ki is reported as 3.5 µM.
